# Test results published in paper PMC9959349, “Discovery of the 3-Amino-1,2,4-triazine-Based Library as Selective PDK1 Inhibitors with Therapeutic Potential in Highly Aggressive Pancreatic Ductal Adenocarcinoma” (International Journal of Molecular Sciences, 2023).
# Where two headings read alike, the source gives them in different places.
# Legend:
# recombinant human HSP90 = recombinant human HSP90 (Homo sapiens, UniProt P07900); experiment: HSP90 inhibition assay (Transcreener ADP kit); assay type: biochemical; details: for decrease of HSP90 catalytic activity: 1.5 µM compound (equivalent doses)
# Experimental: The in vitro inhibitory activity of tested compounds on recombinant human HSP90 was assessed by The Transcreener™ ADP kit (Bellbrook Labs) according to the manufacturer’s protocol. Human recombinant HSP90 protein was incubated with tested compounds in the presence of 250 μM ATP at 37 °C for 30 min, 4°C for 30 min and ATPase activity was stopped via the addition of the stop and detect buffer. Following this, samples were incubated for 1 h at room temperature with the ADP2 Antibody and the ADP Alexa594 Tracer. The fluorescence intensity polarization of samples was measured with a Tecan plate reader (Tecan Infinite® M200). The evaluation was based on means from at least three independent experiments.
# PSN-1 cells [1] = experiment: ROS production (CM-H2DCFDA); assay type: cell-based, human; details: 5 µM test compounds, antimycin 3 µM as positive control
# Experimental: Consistently, tested compounds, although to different extents, were effective in reducing total cellular sulfhydryl contents in PSN-1-treated cells (Figure 9B).
# The production of ROS was measured in PSN-1 cells (10^4 per well) grown for 24 h in a 96-well plate in RPMI medium without phenol red (Sigma Aldrich, Germany). Cells were then washed with PBS and loaded with 10 μM 5-(and-6)-chloromethyl-2′,7′-dichlorodihydrofluorescein diacetate acetylester (CM–H2DCFDA) (Molecular Probes-Invitrogen, Eugene, OR, USA) for 45 min, in the dark. Afterward, cells were washed with PBS and incubated with tested compounds. Fluorescence increase was estimated utilizing the wavelengths of 485 nm (excitation) and 527 nm (emission) in a VICTOR X3 (PerkinElmer, USA) plate reader. Antimycin (3 μM, Sigma Aldrich), a potent inhibitor of Complex III in the electron transport chain, was used as the positive control.
# PSN-1 cells [2] = experiment: Mitochondrial membrane potential (Mito-ID kit); assay type: cell-based, human; details: IC50 concentrations
# Experimental: The ΔΨ was assayed using the Mito-ID® Membrane Potential Kit according to the manufacturer’s instructions (Enzo Life Sciences, Farmingdale, NY, USA) as previously described. Briefly, PSN-1 cells (8 × 10^3 per well) were seeded in 96-well plates; after 24 h, cells were washed with PBS and loaded with Mito-ID Detection Reagent for 30 min at 37 °C in the dark. Afterward, cells were incubated with tested compounds for 60 min. CCCP (Carbonyl cyanide 3-chlorophenyl-hydrazone) was used as the positive control. Fluorescence intensity was estimated using a VICTOR X3 (PerkinElmer, Waltham, MA, USA) plate reader at 490 (excitation) and 590 nm (emission).
# PSN-1 cells [3] = experiment: TEM analysis of mitochondria; assay type: cell-based, human; details: 24 h, IC50 concentrations
# Experimental: In addition, TEM analyses were performed on PSN-1 cancer cells after 24 h treatment with IC50 concentrations of the representative compounds 5i and 6h.
# About 10^6 PSN-1 cancer cells were seeded in 24-well plates and, after 24 h incubation, were treated with IC50 concentrations of tested compounds and incubated for an additional 24 h. Cells were then washed with cold PBS, harvested, and directly fixed with 1.5% glutaraldehyde buffer with 0.2 M sodium cacodylate, pH 7.4. After washing with buffer and postfixation with 1% OsO4 in 0.2 M cacodylate buffer, specimens were dehydrated and embedded in epoxy resin (Epon Araldite). Sagittal serial sections (1 μm) were counterstained with toluidine blue; thin sections (90 nm) were given contrast by staining with uranyl acetate and lead citrate. Micrographs were taken with a Hitachi H-600 electron microscope (Hitachi, Tokyo, Japan) operating at 75 kV. All photos were typeset in Corel Draw 11.
# [4] = system: caspase-3 and -8 in PSN-1 cells; experiment: Caspase-3 and -8 activity; assay type: cell-based, human; details: 24 h, IC50 doses
# Experimental: Apoptotic cell death can be triggered by a mitochondria-mediated or mitochondrial-independent pathways. In the […], caspase-8 and caspase-3 play an essential role. […] Staurosporine (STS), an alkaloid inducing apoptosis through caspase-3 and -8 activation was used as a positive control. […] Caspase-3 and -8 cleavage reached values similar to that induced by the well-known caspase-dependent apoptosis inducer staurosporine (Figure 10C).
# Protein aliquots (100 μg) were stained at 37 °C for 60 min with fluorescent caspase-3 (N-acetyl-Asp-Glu-Val-Asp-AMC, AMC = 7-amino-4-methylcoumarin) or caspase-8 (Ac-Val-Glu-Thr-Asp-AMC) substrates. Substrate hydrolysis was measured after 60 min by monitoring the release of AMC using a a Tecan microplate reader (excitation at 370 nm, emission at 460 nm).
# PSN-1 cells [5] = experiment: Cell death induction, Hoechst 33258 staining; assay type: cell-based, human; details: 48 h, IC50 doses
# Experimental: As a last mechanistic evaluation, the ability of selected compounds 5i and 6h to induce cancer cell death by means of apoptosis, was also assessed.
# PSN-1 cells were seeded into 8-well tissue-culture slides (BD Falcon, Bedford, MA, USA) at 5 × 10^4 cells/well (0.8 cm^2). […] Samples were examined at 5× and 40× magnification in a Zeiss LSM 800 confocal microscope using the Zeiss ZEN 2.3 software system (Zeiss, Oberkochen, Germany).
# recombinant human PDK1 = recombinant human PDK1 (Homo sapiens, UniProt Q15118); experiment: ADP-Glo kinase assay, PDK1; details: for effect on enzymatic activity of PDK1: 1.5 µM compound, 30 min preincubation
# Sequence of recombinant human PDK1 (Q15118 29-436): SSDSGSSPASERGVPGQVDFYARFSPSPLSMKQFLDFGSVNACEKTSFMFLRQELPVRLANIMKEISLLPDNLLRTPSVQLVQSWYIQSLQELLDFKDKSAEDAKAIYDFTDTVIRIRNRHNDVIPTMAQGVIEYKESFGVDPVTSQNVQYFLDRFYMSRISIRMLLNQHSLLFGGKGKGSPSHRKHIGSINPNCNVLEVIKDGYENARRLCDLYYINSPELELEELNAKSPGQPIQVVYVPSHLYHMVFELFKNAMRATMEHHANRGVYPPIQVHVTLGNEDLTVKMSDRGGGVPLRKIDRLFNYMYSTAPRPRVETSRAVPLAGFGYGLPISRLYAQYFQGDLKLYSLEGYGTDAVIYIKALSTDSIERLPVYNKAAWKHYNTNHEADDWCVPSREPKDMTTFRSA
# Experimental: (§4) The ability of tested compounds to inhibit the activity of PDK 1–4 isoforms was primarily assessed in cell-free experiments by a chemioluminescent assay, the ADPGlo™ Kinase Assay kit from Promega (Promega Corporation, Madison, WI, USA).
# (§5) The in vitro inhibitory activity of tested compounds on recombinant human PDK1-4 isoforms (Abcam, Cambridge, MA, USA) was evaluated by using the ADPGlo™ Kinase Assay kit from Promega (Promega Corporation, Madison, WI, USA) following the instructions of the manufacturer. […] The reaction was then started by the addition of substrate/ATP for 60 min at room temperature. Subsequently, ADP-Glo™ reagent was added and incubated for 40 min prior to kinase detection reagent addition. After 30 min, the luminescence was measured with a Tecan plate reader (Tecan Infinite® M200). Raw data were normalized to the values of control wells and luminescence values for each drug dose were expressed as a percentage of the luminescence of control untreated wells. […] The evaluation was based on means from at least three independent experiments.
# PSN-1 cells [6] = experiment: 3D spheroid cytotoxicity, acid phosphatase (APH) assay, PSN-1; details: read-out: IC50 ±S.D. PSN-1 (3D cytotoxicity); spheroids, 72 h, APH test
# Experimental: (§6) The PDAC cancer spheroids were treated with tested compounds for 72 h, and cell viability was assessed by means of the acid phosphatase (APH) assay (Table 3).
# (§7) An APH-modified assay was used for determining cell viability in 3D spheroids, as previously described [61]. Briefly, the pre-seeded spheroids were treated with fresh medium containing the compound to be studied at the appropriate concentration (range 2.5–200 μM). Triplicate cultures were established for each treatment. After 72 h, each well was treated with 100 μL of the assay buffer (0.1 M sodium acetate, 0.1% Triton-X-100, supplemented with ImmunoPure p-nitrophenyl phosphate; Sigma Chemical Co., Ltd.) and, following 3 h of incubation, 10 μL of 1 M NaOH solution was added. […] The mean absorbance for each drug dose was expressed as a percentage of the control untreated well absorbance (T/C) and plotted vs. drug concentration. […] The evaluation was based on means from at least four independent experiments.
# BxPC-3 cells [7] = experiment: 3D spheroid cytotoxicity, acid phosphatase (APH) assay, BxPC-3; details: read-out: IC50 ±S.D. BxPC-3 (3D cytotoxicity); spheroids, 72 h, APH test
# Experimental: as §6, §7
# PSN-1 cells [8] = experiment: 2D cytotoxicity, MTT assay, PSN-1; assay type: cell-based; details: Homo sapiens, PSN1, 72 h, 72 h, MTT test, KRAS-mutant PSN-1; read-out: IC50 ±S.D. PSN-1 (2D cytotoxicity)
# Experimental: (§1) All newly synthesized compounds were then screened for their cytotoxic activity against two human PDAC cell lines, namely a KRAS-wild-type PDAC cell line (BxPC-3 cells) and a KRAS-mutant PDAC cell line (PSN-1 cells). […] The cytotoxicity parameters, expressed in terms of IC50 and obtained after 72 h of drug exposure by MTT assay, are listed in the Supplementary Materials (Table S2).
# (§2) The growth inhibitory effect on tumor cells was evaluated by means of the MTT assay. Briefly, 3–8 × 10^3 cells/well, dependent upon the growth characteristics of the cell line, were seeded in 96-well microplates in growth medium (100 μL). After 24 h, the medium was removed and replaced with a fresh one containing the compound to be studied at the appropriate concentration. Triplicate cultures were established for each treatment. After 72 h, each well was treated with 10 μL of a 5 mg/mL MTT saline solution, and following 5 h of incubation, 100 μL of a sodium dodecyl sulfate (SDS) solution in HCl 0.01 M was added. After overnight incubation, cell growth inhibition was detected by measuring the absorbance of each well at 570 nm using a Bio-Rad 680 microplate reader. The mean absorbance for each drug dose was expressed as a percentage of the control untreated well absorbance and plotted vs. drug concentration. IC50 values, the drug concentrations that reduce the mean absorbance at 570 nm to 50% of those in the untreated control wells, were calculated by the four-parameter logistic (4-PL) model. The evaluation was based on means from at least four independent experiments.
# BxPC-3 cells [9] = experiment: 2D cytotoxicity, MTT assay, BxPC-3; assay type: cell-based; details: Homo sapiens, BXPC-3, 72 h, 72 h, MTT test, KRAS-wild-type BxPC-3; read-out: IC50 ±S.D. BxPC-3 (2D cytotoxicity)
# Experimental: as §1, §2
# [10] = system: S232 PDH E1 alpha protein (PDHA1) phosphorylation in PSN-1 cells; experiment: Cellular PDH phosphorylation (ELISA); assay type: cell-based, human; details: 24 h, IC50 concentrations
# Experimental: As a first step, the ability of representative derivatives to target PDK in intact cancer cells was assessed by evaluating their effect on PDH phosphorylation of PSN-1 cancer cells.
# PSN-1 cells (2 × 10^5) were seeded in a six-well plate in growth medium (4 mL). After 24 h, cells were incubated for 24 h with IC50 concentrations of tested compounds. Subsequently, the phosphorylation level of S232 PDH E1 alpha protein (PDHA1) was assessed by ELISA Kit (Abcam) following the manufacturer’s instructions. The amount of phosphorylated S232 PDHA1 protein was detected by measuring the absorbance of each well at 600 nm, using a Bio-Rad 680 microplate reader.
# recombinant human PDK4 = recombinant human PDK4 (Homo sapiens, UniProt Q16654); experiment: ADP-Glo kinase assay, PDK4; details: 1.5 µM compound
# Sequence of recombinant human PDK4 (Q16654 whole entry): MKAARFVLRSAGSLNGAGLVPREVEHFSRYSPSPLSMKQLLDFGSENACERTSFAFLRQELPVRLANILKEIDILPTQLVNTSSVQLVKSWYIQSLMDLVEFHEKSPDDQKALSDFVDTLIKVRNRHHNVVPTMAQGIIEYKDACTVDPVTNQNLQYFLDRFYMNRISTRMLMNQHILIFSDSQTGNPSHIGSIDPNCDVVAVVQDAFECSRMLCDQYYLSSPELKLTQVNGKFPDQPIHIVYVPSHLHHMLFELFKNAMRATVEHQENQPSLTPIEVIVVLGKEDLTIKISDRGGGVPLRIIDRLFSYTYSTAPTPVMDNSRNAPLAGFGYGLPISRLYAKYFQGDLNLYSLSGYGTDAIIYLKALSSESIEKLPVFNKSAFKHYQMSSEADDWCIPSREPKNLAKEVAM
# Experimental: as §4, §5
# PSN-1 cells [11] = experiment: Cellular oxygen consumption (Mito-ID Extracellular O2 Sensor Kit); assay type: cell-based, human; details: IC50 concentrations
# Experimental: (§3) Cells were treated with DAP or representative compounds at IC50 concentrations and the changes in OCR and in the intracellular lactate formation were monitored.
# PSN-1 cells (2 × 10^5) were seeded in a six-well plate in growth medium (4 mL). After 24 h, cells were incubated for 60 min with IC50 concentrations of tested compounds. Subsequently, oxygen consumption was assessed by Mito-ID® Extracellular O2 Sensor Kit according to manufacturer’s instructions. Fluorescence was measured using a Tecan microplate reader (Ex 340–400 nm, Em 630–680 nm).
# PSN-1 cells [12] = experiment: Cellular lactate production; assay type: cell-based, human; details: IC50 concentrations
# Experimental: as §3
# PSN-1 cells (2 × 10^5) were seeded in a six-well plate in a growth medium (4 mL). After 24 h, cells were incubated for 60 min with IC50 concentrations of tested compounds. Changes in lactate production were assessed via colorimetric microplate assay (Lactate assay kit®, Merk, St. Louis, MO, USA) according to the manufacturer’s instructions. The intracellular lactate concentration was detected by measuring the absorbance of each well at 570 nm, using a Bio-Rad 680 microplate reader.
SMILES,IC50 (recombinant human HSP90) [µM],effect on HSP90 enzyme activity (recombinant human HSP90; 1.5 µM compound),ROS basal level production / hydrogen peroxide formation (PSN-1 cells [1]),percentage of cells with hypopolarized mitochondrial membrane potential (in words) (PSN-1 cells [2]),mitochondrial morphology (TEM) (PSN-1 cells [3]),caspase-3 and -8 activation [4],apoptosis induction (nuclear morphology) (PSN-1 cells [5]),IC50 (recombinant human PDK1) [µM],effect on enzymatic activity of PDK1 (recombinant human PDK1),IC50 (PSN-1 cells [6]) [µM],IC50 (BxPC-3 cells [7]) [µM],decrease of HSP90 catalytic activity (recombinant human HSP90),IC50 (PSN-1 cells [8]) [µM],IC50 (BxPC-3 cells [9]) [µM],reduction in phospho-PDHA1 (S232) levels [10],melting point [°C],"IC50 (recombinant human PDK1; read-out: IC50 ±S.D. PDK1, four-parameter logistic model, three independent experiments) [µM]",effect on PDK4 activity (ATP consumption) (recombinant human PDK4),cellular oxygen consumption (OCR) (PSN-1 cells [11]),lactate production (PSN-1 cells [12])
COc1ccc2c(c1)c(-c1nnc(N)nc1-c1cn(C)c3ccccc13)cn2C [6h],0.2,completely abolish the enzyme activity,increase in the ROS basal level production,significantly increased,dramatic swelling of the mitochondria,significantly activated,brightly stained nuclei and morphological features typical of cells undergoing apoptosis,0.08 ± 0.01,totally suppressed,24.3 ± 1.4,33.4 ± 3.6,,,,,,,,,
Cn1cc(-c2nnc(N)nc2-c2cn(C)c3ccccc23)c2cc(Br)ccc21 [6j],,,even higher than that provoked by antimycin,significantly increased,,,,,totally suppressed,18.1 ± 2.3,41.2 ± 3.6,60–80%,0.6 ± 0.1,0.2 ± 0.04,very similar to that exerted by the reference PDK inhibitor DAP,266,0.07 ± 0.02,completely blocked,,
COc1ccc2c(c1)c(-c1nc(N)nnc1-c1cn(C)c3ccc(F)cc13)cn2C [5k],,,even higher than that provoked by antimycin,significantly increased,,,,0.01 ± 0.003,totally suppressed,15.9 ± 2.3,67.9 ± 3.7,60–80%,,,very similar to that exerted by the reference PDK inhibitor DAP,239.5,,,more effective than DAP,more potent than DAP
